Data published in PubChem BioAssay (NCI).
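Values below derive from 48-hour exposures of cells grown in 96-well plates, with endpoints linearly interpolated between the two concentrations bracketing the appropriate inhibition level. GI50 is the concentration that inhibits growth by half. TGI is the concentration that stops growth completely.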

Experiments:
Assay in all cases: NCI-60 cell line screen, 48 h
[1] = test system: OVCAR-8 ovarian
[2] = test system: HCC-2998 colon
[3] = test system: SF-539 CNS
[4] = test system: SK-MEL-5 melanoma
[5] = test system: SNB-19 CNS
[6] = test system: MDA-MB-231 breast
[7] = test system: ACHN renal
[8] = test system: NCI/ADR-RES ovarian
[9] = test system: OVCAR-4 ovarian
[10] = test system: MDA-MB-435

| SMILES | TGI [1] | TGI [2] | TGI [3] | TGI [4] | TGI [5] | TGI [6] | TGI [7] | TGI [8] | TGI [9] | TGI [10] | GI50 [1] | GI50 [2] | GI50 [3] | GI50 [5] | GI50 [6] | GI50 [9] | GI50 [10] | GI50 [4] | GI50 [7] | GI50 [8] |
| --- | --- | --- | --- | --- | --- | --- | --- | --- | --- | --- | --- | --- | --- | --- | --- | --- | --- | --- | --- | --- |
| COc1ccc(C(O)CC(O)(C(F)(F)F)C(F)(F)F)cc1 (stereo not given) | > 100 µM | > 100 µM | 55.3 µM | 36.2 µM | > 100 µM | > 100 µM | > 100 µM | 59.7 µM | > 100 µM | > 100 µM |  |  |  |  |  |  |  |  |  |  |
| Nc1ccc(S(=O)(=O)Nc2cnc3c(Cl)cccc3n2)cc1 | > 750 µM | > 663 µM | 513 µM | > 627 µM | 620 µM | > 750 µM | > 750 µM | 629 µM | > 672 µM | > 750 µM | 40.1 µM | 149 µM | > 94.6 µM | > 77.5 µM | 78.1 µM | > 78.1 µM | 31.5 µM |  |  |  |
| NS(=O)(=O)c1ccc(NNc2c3ccccc3nc3c(C(=O)Nc4ccc(S(=O)(=O)Nc5ncccn5)cc4)cccc23)cc1 | > 25 µM | > 25 µM | > 25 µM | > 25 µM | > 25 µM | > 25 µM | > 25 µM | > 25 µM | > 25 µM | > 25 µM |  |  |  |  |  |  |  |  |  |  |
| COc1cc(/C=C(\C#N)C(N)=C(C#N)C#N)cc(O)c1O | > 100 µM | > 100 µM | > 100 µM | > 100 µM | > 100 µM | > 100 µM | > 100 µM | > 100 µM | > 100 µM | > 100 µM |  |  |  |  |  |  |  |  |  |  |
| Cc1cc(Cl)ccc1Nc1nc(C(F)(F)F)ccc1C(=O)N1CCN(c2cccc(Cl)c2)CC1 | > 100 µM | > 100 µM | > 100 µM | > 100 µM | > 100 µM | > 100 µM | > 100 µM | > 100 µM | > 100 µM | > 100 µM | > 100 µM | 49.3 µM | > 100 µM | > 100 µM | 11 µM | 30 µM | > 100 µM | 65.6 µM | > 100 µM | > 100 µM |
| COc1cc(NC(=O)Nc2cnc(Nc3ccc(N4CCOCC4)cc3)nc2Oc2cccc(OC)c2)cc(OC)c1 | 3.19 µM | 3.62 µM | 1.75 µM | 2.65 µM | > 50 µM | 4.7 µM | 6.84 µM | > 50 µM | 2.69 µM | 11.5 µM | 1.31 µM | 1.32 µM | 0.884 µM | 5.73 µM | 1.41 µM | 1.13 µM | 1.99 µM | 1.13 µM | 1.61 µM | 4.04 µM |
| CC1CC2(C)CC(=O)C1C1C(=O)N(CCN3CCCCC3)C(=O)C12 (stereo not given) | > 100 µM | > 100 µM | > 100 µM | > 100 µM | > 100 µM | > 100 µM | > 100 µM | > 100 µM | > 100 µM | > 100 µM | > 100 µM | > 100 µM | > 100 µM | > 100 µM | > 100 µM | > 100 µM | > 100 µM | > 100 µM | > 100 µM | > 100 µM |
| C=[CH][Sn]([CH]=C)([O]c1cccc2cccnc12)[O]c1cccc2cccnc12 | 18.2 µM | 8.85 µM | 9.27 µM | 5.44 µM | 23.8 µM | 36.9 µM | 14.1 µM | > 100 µM | 4.37 µM | 40.8 µM | 3.76 µM | 4.44 µM | 2.85 µM | 8.36 µM | 11.9 µM | 1.38 µM | 7.86 µM | 1.94 µM | 3.26 µM | 9.94 µM |
| O=C(Nc1ccccc1C(=O)N/N=C(\c1ccccc1)c1ccccn1)c1ccc(F)cc1 | > 100 µM | > 100 µM |  | 3.5 µM | > 100 µM | > 100 µM |  | > 19.7 µM | > 100 µM | > 100 µM | 0.31 µM | 0.321 µM | 0.298 µM | 0.502 µM | 0.705 µM | 0.207 µM | 0.602 µM | 0.22 µM | 0.127 µM | 0.105 µM |
| Oc1ccc(Cl)cc1Cc1cc(Cl)ccc1O | 8.97 µM | 5.78 µM | 13.8 µM | 3.46 µM | 15 µM | 5.01 µM | 11.3 µM | 6.32 µM | 11.9 µM | 8.44 µM | 2.63 µM | 2.36 µM | 3.8 µM | 3.52 µM | 1.65 µM | 2.84 µM | 2.76 µM | 1.62 µM | 3.33 µM | 2.19 µM |
| O=c1[nH]c2ccccc2n1-c1n[nH]c2ccccc12 | > 100 µM | > 100 µM | > 100 µM | 35.9 µM | > 100 µM | > 100 µM | > 100 µM | > 100 µM | > 100 µM | 57.4 µM | 35.3 µM | 31.9 µM | 56.9 µM | 56.6 µM | 22.9 µM | 41.3 µM | 23.7 µM | 16.9 µM | 29.9 µM | 30.3 µM |
| CSc1ccc(C(=O)C(=O)c2ccc(SC)s2)s1 | > 10 µM | > 10 µM | > 10 µM | > 10 µM | > 10 µM | > 10 µM | > 10 µM | > 10 µM | > 10 µM | > 10 µM |  |  |  |  |  |  |  |  |  |  |
| C(/Cc1ccc2c(c1)OCO2)=N\NC1=NCCCN1 | > 100 µM | > 100 µM | > 100 µM | 56.4 µM | > 100 µM | > 100 µM | > 100 µM | > 100 µM | > 100 µM | > 100 µM |  |  |  |  |  |  |  |  |  |  |
| N#CC1C=Cc2ccccc2N1C(=O)Oc1ccccc1 (stereo not given) | > 100 µM | > 100 µM | > 100 µM | > 100 µM | > 100 µM | > 100 µM | > 100 µM | > 100 µM | > 100 µM | 58.7 µM |  |  |  |  |  |  |  |  |  |  |
| CC(C)C(=O)Oc1cc2c(=O)oc3c(OC(=O)C(C)C)c(OC(=O)C(C)C)cc4c(=O)oc(c1OC(=O)C(C)C)c2c34 | > 100 µM | > 100 µM | > 100 µM | > 100 µM | > 100 µM | > 100 µM | > 100 µM | > 100 µM | > 100 µM | > 100 µM |  |  |  |  |  |  |  |  |  |  |
